Experimental data from patent US9017645B2, “Homoglutamic acid derivatives” (Piramal Imaging SA, priority 2009, dated 2015).

Key:
[1] = system: H460 (human NSCLC) cells; experiment: Cell uptake of F-18 labeled tracer in H460 cells; assay type: cell-based; conditions: 0.25 MBq, 60 min incubation, PBS 0.1% BSA
Description: FIG. 4: Time dependent uptake of (2S)-2-amino-5-[3-[^18F]fluoropropyl]hexanedioic acid was determined. H460 cells were incubated with 0.25 MBq (2S)-2-amino-5-[3-[^18F]fluoropropyl]hexanedioic acid for up to 60 min and the cell-bound fraction was determined after 10, 20, 30 and 60 min)
Cell uptake & Retention of (2S)-2-amino-5-[3-[^18F]fluoropropyl]hexanedioic acid—For determination of the biological activity of (2S)-2-amino-5-[3-[^18F]fluoropropyl]hexanedioic acid, the F-18 labeled compound was used as tracer in a cell uptake experiment using H460 (human NSCLC) cells. Approximately 100.000 cells were incubated with 0.25 MBq (2S)-2-amino-5-[3-[^18F]fluoropropyl]hexanedioic acid for up to 60 minutes in PBS-buffer containing 0.1% BSA and the cell-bound fraction was determined. A time-dependent uptake was observed during the 60 min incubation period. Approximately 20% of applied dose was taken up by the cells during the 60 min incubation period (FIG. 4).

[2] = system: H460 tumor cells; experiment: Retention of activity in H460 tumor cells under efflux conditions; assay type: cell-based, human; conditions: H460 cells loaded 30 min, then 30 min incubation in new buffer (efflux conditions)
Description: FIG. 5: Retention of (2S)-2-amino-5-[3-[^18F]fluoropropyl]hexanedioic acid in H460 tumor cells. H460 cells were loaded with 0.25 MBq (2S)-2-amino-5-[3-[^18F]fluoropropyl]hexanedioic acid for 30 min in PBS/BSA. After washing, the cells were incubated with new buffer (without radioactivity) for additional 10, 20, 30 min. The release of radioactivity into the supernatant as well as the retention inside the cells was determined.
In a second experiment, the retention of activity in tumor cells was examined. H460 cells were loaded with 0.25 MBq (2S)-2-amino-5-[3-[^18F]fluoropropyl]hexanedioic acid for 30 minutes in PBS/BSA-buffer. After this uptake, the buffer was removed and the cells were washed with PBS. The cells were then incubated with new PBS-buffer (without activity) for up to 30 min. The release of activity into the supernatant as well as the retention of activity inside the cells was examined. It was discovered, that more than 80% of activity were retained in the tumor cells after 30 min incubation under these efflux conditions (see FIG. 5).

N[C@@H](CCC(CCC[18F])C(=O)O)C(=O)O (stereo partly drawn) [(2S)-2-amino-5-[3-[^18F]fluoropropyl]hexanedioic acid]
cell uptake (cell-bound fraction) [1]: Approximately 20 % of applied dose
activity retained in the tumor cells [2]: more than 80%
